Measured values: patent US20130131062A1, “PYRIDAZINONES AND FURAN-CONTAINING COMPOUNDS” (priority 2006, published 2013)
Like-named read-outs stand apart in the source and are kept apart here.

Legend:
Type in all cases: cell-based, human
H3255 = experiment: Non Small Cell Lung Cancer Proliferation Assay (Alamar Blue)
Procedure: (§1) These cells have a doubling time of 1-2 days. All cell types are adherent and grow in colonies. The cells should be kept at a density between 50,000 cells/mL-500,000 cells/mL to provide for optimum growth and adequate nutrition. The cell line should be maintained at 37° C. in a humidified atmosphere with 5% CO2 in a sterile cell culture incubator.
(§2) To perform the assay, the Non Small Cell Lung Cancer lines are diluted in media and plated into 384 well microplates at a final density of 250 cells in 45 μL.
(§3) High Controls for this assay are made by treating Non Small Cell Lung Cancer cells with 5 ul of 10% DMSO. [Final concentration in this assay is 1% DMSO].
(§4) Important Note: All compounds for testing in this assay should be done at the final concentration of 1% DMSO.
(§5) After addition, the cells are placed in cell culture incubator at 37° C. for 48 hours for complete treatment.
(§6) After drug treatment, cytotoxicity is measured by Alamar Blue reduction.
(§7) The cells are incubated for 48 hours at 37° C. to complete the Alamar Blue reduction.
(§8) The final step in the assay is to measure the amount of Alamar Blue reduction. […] The Alamar Blue fluorescence is measured at an excitation of 530 nm and emission of 590 nm.
(§9) For the NSCLC project, the cell based assay was screened against a small molecule library of approximately 200,000 compounds. The compound library is stored in our automated robotic freezer (Biophile) at −20° C. in 100% DMSO. Compound freeze and thaw cycles are kept to a minimum. […] This assay was performed on a fully automated linear track robotic platform (CRS F3 Robot System, Thermo Electron Corp., Ontario, Canada) utilizing several integrated peripherals for plate handling, liquid dispensing, and readout detection. […] The microplates are then placed at 37° C. for 48 hours to complete treatment of cells with compounds. Next, 5 ul of alamar blue was added using a liquid dispenser (FlexDrop Precision Dispenser, Perkin Elmer, Mass., USA) and incubated for 48 hours at 37° C. The alamar blue prompt fluorescence was measured on Victor V (Victor^3 V, Perkin Elmer, Mass., USA) and output data files were loaded into ORIS (Oncology Research Informatics System, MSKCC, NY, USA), a screening data acquisition and analysis platform.

[1] = test system: 15 non small cell lung cancer lines representing various EGFR and KRAS mutations; experiment: Dose response studies against 15 NSCLC lines (alamar blue)
Procedure: Dose response studies against 34 compounds from the pyridazinone and phenylfuran-carboxamide class were conducted. […] In addition, Tarceva was included in these dose response studies.
The dose response studies were done with the following standard procedure. First, the cells were counted and dispensed at 250 cells/well into 384-well microplates with compound. The cells were incubated for 48 hours at 37 C to complete treatment, and then alamar blue was added for an additional 48 hours. Finally, alamar blue reduction was measured and the data was loaded into ORIS, our data screening acquisition platform.

H2030 = experiment: Non Small Cell Lung Cancer Proliferation Assay (Alamar Blue); conditions: dose response 10 μM to 5 nM
Procedure: as §1, §2, §3, §4, §5, §6, §7, §8, §9

[2] = Homo sapiens, read-out: IC50 H23
[3] = Homo sapiens, read-out: IC50 H1118
[4] = Homo sapiens, read-out: IC50 HPL1D
[5] = Homo sapiens, read-out: IC50 PC9
[6] = HPL1D (SV40-immortalized human lung epithelian cells, EGFR WT, KRAS WT), 12 point doubling dilution 10 uM to 5 nM, alamar blue, read-out: IC50 HPL1D
[7] = Homo sapiens, H23 (EGFR WT, KRAS G12C), 12 point doubling dilution 10 uM to 5 nM, alamar blue, read-out: IC50 H23
[8] = Homo sapiens, PC9 (EGFR DclE746-A750, KRAS WT), 12 point doubling dilution 10 uM to 5 nM, alamar blue, read-out: IC50 PC9

## Cc1ccc(NC(=O)c2ccc([N+](=O)[O-])o2)cc1 [compound 98697]
H3255; confirmation, percentage inhibition, 10 μM compound in 1% DMSO (v/v)
  CONFIRMATION [%] 3255: 130%
[1]; [2]
  IC50: 910 nM
[1]; [3]
  IC50: 560 nM
[1]; [4]
  IC50: > 10000 nM
[1]; [5]
  IC50: 2170 nM

## Cc1ccc(-n2ncc(Cl)c(Cl)c2=O)cc1Cl [compound 267070]
[1]; [6]
  IC50: > 10000 nM
[1]; [7]
  IC50: > 10000 nM
[1]; [8]
  IC50: > 10000 nM

## Cc1cc(-n2ncc(Cl)c(Cl)c2=O)ccc1Cl [compound 267065]
[1]; [8]
  IC50: > 10000 nM

## O=c1c(Cl)c(Cl)cnn1-c1ccccn1 [compound 267090]
[1]; Homo sapiens, NCI-H820, H820 (EGFR T790M/DelE746-A750, KRAS WT), 12 point doubling dilution 10 uM to 5 nM, alamar blue, read-out: IC50 H820
  IC50: 410 nM
[1]; [7]
  IC50: 80 nM

## O=C(Nc1ccc(F)c(Cl)c1)c1ccc([N+](=O)[O-])o1 [compound 87200]
[1]; [6]
  IC50: > 10000 nM

## Cc1cc(-n2ncc(Cl)c(Cl)c2=O)ccc1Br [compound 267064]
[1]; [8]
  IC50: > 10000 nM

## O=c1c(Cl)c(Cl)cnn1-c1ccccc1 [compound 257014]
[1]; [2]
  IC50: 260 nM
[1]; [3]
  IC50: 450 nM
[1]; [4]
  IC50: 380 nM
[1]; [5]
  IC50: 830 nM

## Cc1cccc(NC(=O)c2ccc([N+](=O)[O-])o2)c1 [compound 71762]
[1]; [6]
  IC50: > 10000 nM

## O=c1c(Br)c(Br)cnn1-c1cccc(C(F)(F)F)c1 [compound 267072]
H2030
  IC50: 1420 nM

## CCc1cccc(-n2ncc(Cl)c(Cl)c2=O)c1 [compound 267062]
[1]; [8]
  IC50: 1510 nM

## O=c1c(Br)c(Br)cnn1-c1ccccn1 [compound 267073]
[1]; [7]
  IC50: 70 nM
[1]; [8]
  IC50: 420 nM

## O=c1c(Cl)c(Cl)cnn1-c1cccc(C(F)(F)F)c1 [compound 176729]
[1]; [8]
  IC50: 900 nM

## O=c1c(Cl)c(Cl)cnn1-c1ccc(Cl)cc1Cl [compound 267077]
H3255; dose response 10 μM to 5 nM
  IC50: 1110 nM
[1]; [8]
  IC50: > 10000 nM

## Cc1nc2cc(-n3ncc(Cl)c(Cl)c3=O)ccc2s1 [compound 267067]
[1]; [8]
  IC50: > 10000 nM

## Cc1ccc(-n2ncc(Cl)c(Cl)c2=O)cc1 [compound 257016]
[1]; [7]
  IC50: 320 nM

## O=c1c(Br)c(Br)cnn1-c1ccccc1 [compound 257015]
[1]; [6]
  IC50: 300 nM

## CCCCc1cccc(-n2ncc(Cl)c(Cl)c2=O)c1 [compound 267063]
[1]; H2444 (EGFR WT, KRAS G12V), 12 point doubling dilution 10 uM to 5 nM, alamar blue, read-out: IC50 H2444
  IC50: 5280 nM
